Patent US20250042908A1, “SALTS FOR MTOR COMPOUNDS” (GALDERMA HOLDING S.A., priority 2022, published 2025)
Where a name gives a salt, the structure may show the parent alone. Read-outs that look alike come from different tables or passages of the source.

Columns and labels:
[1] = Solubility of free base and salts in 6 different media (UPLC-UV); assay type: physicochemical; conditions: target concentration 30 mg/ml; for solubility at 24 h: thermodynamic from solid
Description: The following protocol has been used to prepare samples for solubility measurements at room temperature in the 6 different media. First, weigh appropriate amount of each salt and free base compound to reach the desired target concentration (30 mg/ml). Addition at room temperature the studied media to reach the selected target concentration, follow by orbital stirring at room temperature for 24 h, while protected from light. Except for the glycerin medium, separation of the soluble fraction from the non-soluble fraction is performed by centrifugation (15 min at 18000 rpm) followed by filtration on PTFE 0.45 μm membrane. For the glycerin medium, 3 steps of centrifugation (15 mw at 18000 rpm) to collect the supernatant was performed. The resulting filtrates and supernatant for glycerin medium were diluted in appropriate solvents described in the following table to be in the range of calibration curve. Quantification of the diluted and undiluted samples was performed using UPLC-UV.
A standard calibration curve (chromatographic UV peak area vs concentration) between 0.5 μg/mL and 500 μg/mL was established in DMSO according to the following protocol. First, weighing 1 mg free base, then addition of DMSO until a 1 mg/mL clear DMSO Stock solution is obtained. Next, selected compound DMSO solutions at 5 different concentrations (500 ag/mL, 250 ag/mL, 100 ag/ml, 25 μg/ml and 0.5 μg/mL) were prepared by dilution with pure DMSO.
Samples were analysed by UPLC-UV-MS according to the following: (a) Instrument: Waters Acquity H-Class with PDA and QDa detectors; (b) Column: Waters Acquity BEH C18, 1.7 m, 2.1×50 mm; (c) Flow rate: 0.65 ml/min; (d) UV detection: 220 nm, 254 nm, 290 nm; (e) Column temperature: 40° C.; (f) Injection volume: 0.4 μl; (g) Mobile phase: Gradient with solutions A and B prepared according to Table 6; (h) Ionisation mode: ESI+/ESI−; (i) Source temperature: 600° C.; (j) Capillary voltage: 0.8 kV; and (k) Cone voltage: +20V/−20V.
(§1) The target concentration tested to measure the maximum solubility of the 3 salts (phosphate, malonate and malate) and free base in 6 different media was 30 mg/ml. Solids in suspension in water solubility assays have been collected by centrifugation (15 min at 18000 rpm) after 24 h stirring for XRPD analysis. Recorded XRPD patterns have been compared to the one recorded for the salts or free base as received (see FIGS. 8-11).

[2] = XRPD analysis of solid residues collected from the water solubility assay; assay type: physicochemical; conditions: solids in suspension in water collected after 24 h stirring, compared to material as received
Description: XRPD analysis was conducted with a Bruker D8-Advance diffractometer, type: Bragg-Bentano. Source CuKα1, λ=1.5406 Å and CuKα2, λ2=1.54439 Å. Generator: 35 kV-40 mA. Detector: Lynx Eye.
The sample was analyzed using the following protocol: Around 3 mg of the test compound delivered as solid material is gently grounded to homogenize the powder and deposed on zero-diffraction Silicon sample holder. The sample holder is then placed in the X-Ray Diffractometer chamber.
The copper anode X-ray source is turned on using a generator set at 35 kV voltage and at 40 mA intensity. While X-ray beam irradiates the sample, both X-ray source and X-ray detector move on the goniometer with equal 0 angle: diffractometer in Bragg-Brentano configuration. XRPD pattern is recorded in the [2°; 40°] 2θ angle range by step of 0.040 in 20 and for 1 second at each angle step.
as §1

[3] = In vitro permeation testing in Franz cells; assay type: in vitro ADME; conditions: human abdominal skin, Franz cell
Description: In vitro permeation testing was performed using human abdominal skin from 3 donors and 2 samples per donor with a thickness of 400 μm (±100 μm). The samples were used in Franz cell 2 cm^2 of diameter and a receptor volume of 3 mL (PBS+4% BSA (Bovine Serum Albumin).
The receptor compartment was surrounded by a water jacket heated to 37° C.±1° C. insuring a skin surface temperature of 32° C.±1° C. The receptor compartment is separated from the donor compartment by the skin membrane where the epidermis side faces the donor. Receptor compartments containing magnetic stirrer bar, were filled with the receptor fluid in such a way to prevent any formation of air-bubbles. During the diffusion experiment, receptor fluids were continuously stirred in order to ensure homogenization.
Abdominal skins from aesthetic surgery were used in this study. Skins, upon arrival, were separated from hypodermis with the help of tweezers and a scalpel blade. Skins were gently washed and stored flat in aluminum foil for freezing at −20° C. At the day of experiment, skins were thawed then cut in smaller pieces to fit with diffusion cell geometry. In this experiment three donors were used. Skin specimens were mounted onto Franz diffusion cells with PBS+4% Bovine Serum Albumin as a receptor fluid. […]
Following at least 45 min equilibrium with receptor fluid, skin integrity is assessed by Transepidermal Water Loss (TEWL) measurements. […] TEWL is again measured and cells still depicting a high water flux are recorded. […] Individual TEWL values for each skin specimen used, room temperature and relative humidity were also recorded.
Test Items were applied at a dose of 5 mg/cm^2 for 24 hours on the skin samples in the Franz cell. At the end of exposure, the following samples were recovered: Stratum corneum (not analysed), epidermis, dermis and receptor fluid were collected analysed for API content.
The samples were analyzed following LC/MS/MS method internally certified. […] Percutaneous fluxes were calculated as the ratio of permeated amounts in receptor fluid (RF) of each individual cell to the duration of exposure (24 h).

[4] = Glycerin/Water 5/95 (v/v), room temperature, 24 h
[5] = Glycerin/Water 10/90 (v/v), room temperature, 24 h
[6] = Glycerin/Water 20/80 (v/v), room temperature, 24 h
[7] = Transcutol/Water 10/90 (v/v), room temperature, 24 h
[8] = glycerin, room temperature, 24 h
[9] = water, orbital stirring at room temperature for 24 h
[10] = Glycerin/Water 5/95 (v/v), aqueous with cosolvent or surfactant or cyclodextrin, Glycerin/Water 5/95 (v/v), room temperature, 24 h, read-out: Solubility, Glycerin/Water 5/95 (v/v)
[11] = Glycerin/Water 10/90 (v/v), aqueous with cosolvent or surfactant or cyclodextrin, Glycerin/Water 10/90 (v/v), room temperature, 24 h, read-out: Solubility, Glycerin/Water 10/90 (v/v)
[12] = Glycerin/Water 20/80 (v/v), aqueous with cosolvent or surfactant or cyclodextrin, Glycerin/Water 20/80 (v/v), room temperature, 24 h, read-out: Solubility, Glycerin/Water 20/80 (v/v)
[13] = Transcutol/Water 10/90 (v/v), aqueous with cosolvent or surfactant or cyclodextrin, Transcutol/Water 10/90 (v/v), room temperature, 24 h, read-out: Solubility, Transcutol/Water 10/90 (v/v)
[14] = glycerin, organic solvent or mixture, glycerin, room temperature, 24 h, read-out: Solubility, Glycerin
[15] = water, water, orbital stirring at room temperature for 24 h, read-out: Solubility, Water
[16] = 5 mg/cm^2 for 24 hours, 0.63 w/w % phosphate salt vs 0.5 w/w % free base

| SMILES | Solubility, Glycerin/Water 5/95 (v/v) [1, 4] [µg/mL] | Solubility, Glycerin/Water 10/90 (v/v) [1, 5] [µg/mL] | Solubility, Glycerin/Water 20/80 (v/v) [1, 6] [µg/mL] | Solubility, Transcutol/Water 10/90 (v/v) [1, 7] [µg/mL] | Solubility, Glycerin [1, 8] [µg/mL] | Solubility, Water [1, 9] [µg/mL] | XRPD of solid residues in water [2] | solubility at 24 h [1, 10] [µg/mL] | solubility at 24 h [1, 11] [µg/mL] | solubility at 24 h [1, 12] [µg/mL] | solubility at 24 h [1, 13] [µg/mL] | solubility at 24 h [1, 14] [µg/mL] | solubility at 24 h [1, 15] [µg/mL] | ratio of percutaneous flux over dermis concentration, phosphate salt compared to free base [3, 16] | skin permeability coefficient (Kp), phosphate salt relative to free base [3, 16] [times] | permeability of formulation compared to free base formulation ([3]; 24 hours, 10% w/w propylene glycol of the free base formulation replaced with water) |
| --- | --- | --- | --- | --- | --- | --- | --- | --- | --- | --- | --- | --- | --- | --- | --- | --- |
| CC(C)CC(C)n1nc(-c2ccc3oc(N)nc3c2)c2c(N)nc(N)nc21 (stereo not shown) [Free Base, 3-(2-Amino-1,3-benzoxazol-5-yl)-1-(1,3-dimethylbutyl)pyrazolo[3,4-d]pyrimidine-4,6-diamine] | 29 | 45 | 71 | 256 | 6400 ± 300 | 180 | No crystalline phase conversion |  |  |  |  |  |  |  |  |  |
| CC(C)CC(C)n1nc(-c2ccc3oc(N)nc3c2)c2c(N)nc(N)nc21.O=C(O)CC(=O)O (stereo not shown) [Malonate Salt] |  |  |  |  |  |  | Crystalline Phase conversion | 2700 ± 200 | 2900 ± 200 | 3500 ± 200 | 3700 ± 200 | 24700 ± 300 | 2200 |  |  |  |
| CC(C)CC(C)n1nc(-c2ccc3oc(N)nc3c2)c2c(N)nc(N)nc21.O=C(O)C[C@H](O)C(=O)O (stereo not shown) [Malate Salt] |  |  |  |  |  |  | No crystalline phase conversion | 2100 ± 300 | 2200 ± 200 | 2900 ± 200 | 3100 ± 300 | 21100 ± 200 | 1600 |  |  |  |
| CC(C)CC(C)n1nc(-c2ccc3oc(N)nc3c2)c2c(N)nc(N)nc21 (stereo not shown) [Phosphate Salt] | 4300 ± 200 | 4700 ± 200 | 5700 ± 200 | 5500 ± 200 | 15800 ± 300 | 3900 ± 200 | No crystalline phase conversion |  |  |  |  |  |  | over 600 times | 3 | superior permeability |
